{"source": "patent US20240228481A1", "about": "“NOVEL SULFONAMIDE SERIES OF QR2 INHIBITORS TO TACKLE OXIDATIVE STRESS AND COGNITIVE DECLINE” (CARMEL HAIFA UNIVERSITY ECONOMIC CORPORATION LTD., priority 2021, published 2024)", "key": {"[1]": {"test_system": "HCT116 QR2Δ cells", "experiment": "H2DCFDA detection of cellular ROS in HCT116 QR2Δ cells", "format": "cell-based, human", "conditions": "20 μM, 3 h", "from_the_text": "Additional details of the knockout procedure and corresponding figures have been previously published. Disruption of the NQO2 gene at positions 46 and 108 within exon 4 was done using CRISPR/Cas9 dual nickase (plasmid pSpCas9n(BB)-2A-Puro (PX462), Addgene #48141). The target sequence was selected using a CRISPR design tool (http://crispr.mit.edu/), which identified the guide sequences with the least off-targets. Vectors NQ024_46 and NQ024_108 were produced by cloning oligonucleotides corresponding to guide RNA (sgRNA) into PX462 as previously described. The vectors were then transfected into HCT 116 cells (at 70% confluence) using Lipofectamine 2000 (Life Technologies), and 24 h later 0.7 μg/mL puromycin (Alfa Aesar) was added to the media for 72 h. Cells that survived were then collected and serially diluted into 96 well plates, with puromycin supplemented media, to enable selection and expansion of plasmid containing colonies two weeks later.\n(§1) The cells were harvested and resuspended in 1% clear medium (DMEM—with no phenol red, supplemented with 1% FBS, 1% L-Glutamine and 1% Penicillin-Streptomycin). […] The plate was then incubated in the dark at 37° C. for 3 h, before reading in a Tecan M200 Pro florescence microplate reader, using wavelengths Ex/Em=485 nm/535 nm."}, "[2]": {"test_system": "HEK293 cells", "experiment": "DCFDA ROS measurement in HEK293 cells after H2O2 insult", "format": "cell-based", "conditions": "HEK293, 2 mM H2O2, 3 h", "protocol": "FIGS. 8A-8C include vertical bar graphs showing QR2 inhibition reduces QR2 activity and ROS following induction of oxidative stress in HEK293 cells. (8A) QR2 activity is seen and is inhibited within HEK293 cells, amongst others, as measured by the rate of fluorescent co-factor oxidation. (8B) HEK293 cells seeded at 25μ 10^3 cells/well in 96-well plates were treated with 2 mM H2O2 with or without increasing doses or QR2 inhibitors for 3 h. Following incubation, the cells were stained with DCFDA for 45 min, and ROS levels were measured using a fluorimeter with ex/em 485/535 nm. N=3. (8C) ROS was measured in HCT cells, and similarly to HEK293, is reduced following QR2 inhibition. […] Data presented as mean±SEM. *p<0.05, ***p<0.0005.\nas §1, with “Penicillin-Streptomycin). A sterile poly-L-lysine-coated Nunc black, 96-well, clear flat-bottomed plate (Thermo Fisher Scientific) was seeded with 25,000 cells in 100 μL per well and incubated overnight. The next day, the medium was removed, and the wells carefully washed with PBS.” for “Penicillin-Streptomycin).”"}, "[3]": {"test_system": "5×FAD mice", "experiment": "Open field in 5×FAD mice", "format": "in vivo, mouse", "protocol": "Mice were individually placed within a cage and taken to a dimly lit room containing an open field arena 50×50 cm in size. They were given 10 min prior to being placed within the arena, where for a period of 5 min they were allowed to explore. Two weeks later, this was repeated. […] The floor was either white or black, depending on mouse coat color, to allow automatic analysis of movement parameters, apart from rearing which was manually counted."}, "[4]": {"test_system": "5×FAD mice", "experiment": "Delay fear conditioning in 5×FAD mice", "method": "Mice are transported to the conditioning room, which is lit by red light only, and kept there for 2 min. They were then placed inside a Habitest Operant Cage, within a Habitest Isolation Cubicle (Coulbourn), on a modular shock floor made of 16 metal grids, connected to Precision Animal Shockers (Coulbourn) with illumination inside the cage coming from a 20 W bulb. The mice were given 2 min to explore, during which baseline freezing was measured. Then, a 20 s, 4 kHz, 80 dB tone was given, co-terminating with the start of a 2 s, 0.5 mA foot-shock, which was repeated a further two times, each having 1 min interval. Following the third, and last of these bouts, 1 min was given prior to the animals being removed from the chambers. The next day, the animals were returned to the room under the same conditions, and were placed back into the chambers, and freezing to the context was measured over the course of 5 min. The next day, the mice were once again returned to the conditioning room, except the room was lit with white light, while the chambers were darkened, the chamber floor was covered with a flat, smooth plastic cover, one of the walls was fitted with a paper sticker and the chamber was scented with diluted (10%) window cleaner (Sano). In this unfamiliar context, the protocol from the first day was repeated, except without the foot-shocks. Freezing for the cue was recorded during the tone. All measurements were taken with a Sentec stc-tb33usb-at camera, and analysis was performed with Freeze Frame software (Actimetrics)."}, "[5]": {"test_system": "5×FAD mice", "experiment": "Weight, drinking rate and wellbeing of 5×FAD mice under treatment in drinking water", "conditions": "for average weight: 25 days, drinking water"}}, "note": "Counter-ions that a name gives are not always drawn.", "data": [{"smiles": "Cc1cccn2cc(-c3cccc(S(=O)(=O)N4CCC(C)CC4)c3)nc12", "note": "[YB-800]", "values": [{"measurement": "baseline ROS levels", "setting": "[1]", "value": "−0.009±0.049", "unit": "AU"}, {"measurement": "ROS levels after ROS insult (DCFDA)", "setting": "[2]", "value": "reduced in a dose dependent manner"}]}, {"smiles": "Cc1ccc(-c2cn3cccc(C)c3n2)cc1S(=O)(=O)N1CCNCC1", "note": "[YB-537, 8-methyl-2-(4-methyl-3-(piperazin-1-ylsulfonyl)phenyl)imidazo[1,2-a]pyridine hydrochloride]", "values": [{"measurement": "average velocity", "setting": "[3]; 5×FAD both sexes", "value": "10.9 ± 0.800", "unit": "cm/s"}, {"measurement": "hind-limb rearing frequency", "setting": "[3]; 5×FAD both sexes", "value": "35.72±3.292"}, {"measurement": "maximum movement bout duration", "setting": "[3]; 5×FAD both sexes", "value": "8.061 ± 1.322", "unit": "s"}, {"measurement": "meandering", "setting": "[3]; 5×FAD both sexes", "value": "733.4±42.8", "unit": "deg/cm"}, {"measurement": "proportion of time moving", "setting": "[3]; 5×FAD both sexes", "value": "81.44±1.134", "unit": "%"}, {"measurement": "total distance traveled", "setting": "[3]; 5×FAD both sexes", "value": "3244±237.9", "unit": "cm"}, {"measurement": "total movement duration", "setting": "[3]; 5×FAD both sexes", "value": "244.3 ± 3.402", "unit": "s"}, {"measurement": "average velocity", "setting": "[3]; 5×FAD females", "value": "12.03 ± 1.625", "unit": "cm/s"}, {"measurement": "hind-limb rearing frequency", "setting": "[3]; 5×FAD females", "value": "35.29±4.894"}, {"measurement": "maximum movement bout duration", "setting": "[3]; 5×FAD females", "value": "9.677 ± 3.012", "unit": "s"}, {"measurement": "meandering", "setting": "[3]; 5×FAD females", "value": "696.3±65.26", "unit": "deg/cm"}, {"measurement": "proportion of time moving", "setting": "[3]; 5×FAD females", "value": "81.84±1.856", "unit": "%"}, {"measurement": "total distance traveled", "setting": "[3]; 5×FAD females", "value": "3581±484.5", "unit": "cm"}, {"measurement": "total movement duration", "setting": "[3]; 5×FAD females", "value": "245.5 ± 5.568", "unit": "s"}, {"measurement": "average velocity", "setting": "[3]; 5×FAD males", "value": "10.01 ± 0.611", "unit": "cm/s"}, {"measurement": "hind-limb rearing frequency", "setting": "[3]; 5×FAD males", "value": "36.06±4.703"}, {"measurement": "maximum movement bout duration", "setting": "[3]; 5×FAD males", "value": 6.804, "unit": "s"}, {"measurement": "meandering", "setting": "[3]; 5×FAD males", "value": "762.2±58.17", "unit": "deg/cm"}, {"measurement": "proportion of time moving", "setting": "[3]; 5×FAD males", "value": "81.13±1.5", "unit": "%"}, {"measurement": "total distance traveled", "setting": "[3]; 5×FAD males", "value": "2983±179.3", "unit": "cm"}, {"measurement": "total movement duration", "setting": "[3]; 5×FAD males", "value": "243.4 ± 4.5", "unit": "s"}, {"measurement": "freezing in response to the conditioned cue", "setting": "[4]; 5×FAD both sexes", "value": "16.47±1.689", "unit": "%"}, {"measurement": "freezing in response to the conditioned cue", "setting": "[4]; 5×FAD females", "value": "12.66±1.739", "unit": "%"}, {"measurement": "baseline freezing in conditioning chambers", "setting": "[4]; 5×FAD males", "value": "0.642±0.408", "unit": "%"}, {"measurement": "freezing in response to the conditioned context", "setting": "[4]; 5×FAD males", "value": "39.51±2.666", "unit": "%"}, {"measurement": "freezing in response to the conditioned cue", "setting": "[4]; 5×FAD males", "value": "19.43±2.289", "unit": "%"}, {"measurement": "adverse effects during month-long treatment", "setting": "[5]; 5×FAD both sexes, 50 mg/kg in drinking water", "value": "no adverse effects were seen"}, {"measurement": "average drinking rate", "setting": "[5]; 5×FAD females", "value": "0.170 ± 0.011", "unit": "mL/g/day"}, {"measurement": "average weight", "setting": "[5]; 5×FAD females", "value": "22.76 ± 0.192", "unit": "g"}, {"measurement": "average drinking rate", "setting": "[5]; 5×FAD males", "value": "0.170 ± 0.035", "unit": "mL/g/day"}, {"measurement": "average weight", "setting": "[5]; 5×FAD males", "value": "32.56 ± 0.279", "unit": "g"}]}]}
